One assay has as its system SW480. As to the kind of experiment: CCK8 cell inhibition test on SW480 cells. The class given is cell-based. As to conditions: Homo sapiens; CCK-8, SW480 cells, 24 hours incubation at 37°C, compound 20 µM to 0.15625 µM in DMEM (2% FBS). How it is done: Cells were digested, counted, and plated in a 96-well plate (flat-bottomed, transparent) with 10,000 cells/100 µl DMEM (10% FBS) per well . • 2. Observe the cell status on the next day and start adding drugs after the cells have fully adhered to the wall; • 3. Dilute the compound in DMEM (2% FBS) in a serial dilution format to concentrations of 20 µM, 10 µM, 5 µM, 2.5 µM, 1.25 µM, 0.625 µM, 0.3125 µM, 0.15625 µM, and 0 µM (with equal volume of DMSO). • 4. Add 100 µl of the above compounds at different concentrations to each well. Repeat for each concentration gradient in duplicate. Leave three blank wells (add only DMEM 2% FBS culture medium without cells) . • 5. Incubate at 37°C for 24 hours . • 6. Add 10 µl of CCK-8 Enhanced Solution to each well. Since the amount of CCK-8 added to each well is relatively small, there may be errors due to the reagent sticking to the well wall. It is recommended to gently tap the culture plate after adding the reagent to help mix it. • 7. Incubate in the incubator for 0.5-4 hours: The amount of formazan formed varies depending on the cell type. In most cases, incubation for 1 hour is sufficient. If color development is insufficient, continue incubation to confirm optimal conditions. • 8. Measure the absorbance at 450nm and 600nm (excluding interference from the reagent background color and the absorbance of the well plate itself); • 9. The final absorbance value is OD450nm-OD600nm, and the inhibition rate is calculated; Inhibition rate = [(Ac−As)/(Ac−Ab)] × 100% [formula] • As: absorbance of the experimental well (culture medium containing cells, CCK-8, and drug to be tested); • Ac: absorbance of control wells (culture medium containing cells, CCK-8, and no test drug); • Ab: absorbance of blank wells (culture medium without cells, test drugs, or CCK-8).

The next assay deals with T1, β-catenin (Homo sapiens, UniProt P35222).
T1 sequence (P35222 1-781): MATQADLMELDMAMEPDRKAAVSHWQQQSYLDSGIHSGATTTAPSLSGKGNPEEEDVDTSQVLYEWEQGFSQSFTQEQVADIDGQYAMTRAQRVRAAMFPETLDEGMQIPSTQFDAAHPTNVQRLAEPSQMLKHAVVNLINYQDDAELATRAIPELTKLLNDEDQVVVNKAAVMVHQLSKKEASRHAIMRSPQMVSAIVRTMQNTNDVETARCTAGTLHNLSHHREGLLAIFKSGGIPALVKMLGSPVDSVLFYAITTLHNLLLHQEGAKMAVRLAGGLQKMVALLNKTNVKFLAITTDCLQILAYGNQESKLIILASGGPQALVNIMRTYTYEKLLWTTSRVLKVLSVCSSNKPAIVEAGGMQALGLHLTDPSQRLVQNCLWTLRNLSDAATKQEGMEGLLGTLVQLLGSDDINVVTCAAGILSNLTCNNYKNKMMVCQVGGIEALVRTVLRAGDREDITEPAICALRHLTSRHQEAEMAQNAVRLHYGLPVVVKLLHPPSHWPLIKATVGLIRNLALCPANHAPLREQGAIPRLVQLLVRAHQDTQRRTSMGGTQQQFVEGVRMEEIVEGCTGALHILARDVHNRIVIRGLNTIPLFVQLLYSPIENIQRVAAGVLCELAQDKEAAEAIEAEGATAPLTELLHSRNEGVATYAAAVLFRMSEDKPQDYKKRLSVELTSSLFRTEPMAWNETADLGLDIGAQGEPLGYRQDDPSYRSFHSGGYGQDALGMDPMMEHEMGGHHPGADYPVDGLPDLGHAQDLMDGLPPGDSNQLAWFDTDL
As to the kind of experiment: SRP test (Biacore T200, affinity fitting KD to coupled ligand β-catenin). The settings on record: Biacore T200, CM5 chip, 25°C, HEPES pH 7.4. The format is binding. How it is done:
• 1. The analyte is in powder form. • 2. The temperature is 25°C. • 3. The analytical equipment used was Biacore T200 instrument.
• 1. Ligand β-catenin was diluted with HEPES (pH 7.4) to 0.5 mg/mL • 2. The analyte was dissolved in DMSO and diluted with 0.1% DMSO HEPES (pH 7.4)
3. Experimental Procedure
• 1. Start the Biacore T200 instrument according to standard operating procedures. • 2. Prepare 500 ml of HEPES buffer (pH 7.4) and deionized water (filtered through a 0.22 µm membrane) for rinsing the injection needle. • 3. Start installing the chip and install the CM5 chip according to the standard process. • 4. Prepare to start the formal experiment. The buffer solution will flush the flow system inside the entire system at a high flow rate. • 5. Choose the appropriate procedure based on the sample size. • 6. Start the capture chip. Prepare a sufficient volume of ligand β-catenin, EDC/NHS, and blocking buffer. Initiate the coupling procedure with a 7-minute coupling time and a flow rate of 10 µl/min. The final ligand coupling volume is approximately 16,000 RU. • 7. After the coupling is completed, start the sample detection and set the analyte binding time to 120 s. • The flow rate was 30 µL/min; the dissociation time was 200 s, the flow rate was 30 µL/min; the regeneration time was 30 s, • The flow rate was 30 µL/min. • 8. […]

A value given as a limit tells only on which side of the number the result lay.

As usually defined, the IC50 is the concentration at which inhibition is half-maximal. As a reminder, the Kd is a measure of binding affinity in units of concentration. Low readings indicate a tighter complex, high ones a looser complex. As to `CC(C)c1ccc(-c2cccc(S(=O)(=O)N3CCCC(c4cccc(OC(C)(C)C(=O)NCC(=O)N5CC[C@@H](CN)C5)c4)C3)c2)cc1` (stereo partly shown) [Compound 115-012], the half-inhibitory concentration (IC50) in the assay with SW480 is under 2970 nM. For the same molecule, at β-catenin, the Kd was found to be 760 nM.

`CC(C)c1ccc(-c2cccc(S(=O)(=O)N3CCCC(c4cccc(OC(C)(C)C(=O)NCC(=O)N5CCC[C@H]5CN)c4)C3)c2)cc1` (stereo partly shown) [Compound 115-010]: the IC50 in the assay on SW480 was 3560 nM. For the same molecule, the Kd at β-catenin came to 284 nM.

For the origin of these results see patent publication EP4647428A1, “COMPOUND CONTAINING 2-METHYL-2-(3-(PIPERIDIN-3-YL)PHENOXY)-2-METHYLPROPANAMIDE SKELETON” (Jiangsu Mingsheng Jutai Biotechnology Co. Ltd, priority 2023, dated 2024).
